The source of these data is the OligoGym collection.

Several values for one entry are separate records, joined by “and”; a condition that tells them apart may be missing. Equal entries are not always repeated. HELM strings list units from the 5' end as sugar, base in round brackets, then linkage (d deoxyribose, r ribose, m 2'-O-methyl, p phosphodiester). Strings are as the collection lists them, not checked against the first reports. ss, as = sense and antisense strand; [lna] = locked nucleic acid (LNA)
Note: test system not given here.

The conditions of the data set: siRNA.
“RNA1{r(C)p.r(U)p.r(U)p.r(A)p.r(C)p.r(G)p.r(C)p.r(U)p.r(G)p.r(A)p.r(G)p.r(U)p.r(A)p.r(C)p.r(U)p.r(U)p.r(C)p.r(G)p.r(A)p.r(T)p.r(T)}|RNA2{[lna](T)p.r(C)p.r(G)p.r(A)p.r(A)p.r(G)p.r(U)p.r(A)p.r(C)p.r(U)p.r(C)p.r(A)p.r(G)p.r(C)p.r(G)p.r(U)p.r(A)p.r(A)p.r(G)p.[lna](T)p.[lna](T)}$$$RNA1{StrandType:ss}|RNA2{StrandType:as}$” yielded a target mRNA knockdown of 57%. On to “RNA1{r(C)p.r(U)p.r(U)p.r(A)p.r(C)p.r(G)p.r(C)p.r(U)p.r(G)p.r(A)p.r(G)p.r(U)p.r(A)p.r(C)p.r(U)p.r(U)p.r(C)p.r(G)p.r(A)p.r(T)p.r(T)}|RNA2{r(T)p.r(C)p.[lna](G)p.r(A)p.r(A)p.r(G)p.r(U)p.r(A)p.r(C)p.r(U)p.r(C)p.r(A)p.r(G)p.r(C)p.r(G)p.r(U)p.r(A)p.r(A)p.r(G)p.[lna](T)p.[lna](T)}$$$RNA1{StrandType:ss}|RNA2{StrandType:as}$”, for which the target mRNA knockdown came to 90%. In the case of “RNA1{r(C)p.r(U)p.r(U)p.r(A)p.r(C)p.r(G)p.r(C)p.r(U)p.r(G)p.r(A)p.r(G)p.r(U)p.r(A)p.r(C)p.r(U)p.r(U)p.r(C)p.r(G)p.r(A)p.r(T)p.r(T)}|RNA2{r(T)p.r(C)p.r(G)p.[lna](A)p.r(A)p.r(G)p.r(U)p.r(A)p.r(C)p.r(U)p.r(C)p.r(A)p.r(G)p.r(C)p.r(G)p.r(U)p.r(A)p.r(A)p.r(G)p.[lna](T)p.[lna](T)}$$$RNA1{StrandType:ss}|RNA2{StrandType:as}$”, the target mRNA knockdown amounted to 91%.

“RNA1{r(C)p.r(U)p.r(U)p.r(A)p.r(C)p.r(G)p.r(C)p.r(U)p.r(G)p.r(A)p.r(G)p.r(U)p.r(A)p.r(C)p.r(U)p.r(U)p.r(C)p.r(G)p.r(A)p.r(T)p.r(T)}|RNA2{r(T)p.r(C)p.r(G)p.r(A)p.[lna](A)p.r(G)p.r(U)p.r(A)p.r(C)p.r(U)p.r(C)p.r(A)p.r(G)p.r(C)p.r(G)p.r(U)p.r(A)p.r(A)p.r(G)p.[lna](T)p.[lna](T)}$$$RNA1{StrandType:ss}|RNA2{StrandType:as}$” registered a target mRNA knockdown of 88%.

“RNA1{r(C)p.r(U)p.r(U)p.r(A)p.r(C)p.r(G)p.r(C)p.r(U)p.r(G)p.r(A)p.r(G)p.r(U)p.r(A)p.r(C)p.r(U)p.r(U)p.r(C)p.r(G)p.r(A)p.r(T)p.r(T)}|RNA2{r(T)p.r(C)p.r(G)p.r(A)p.r(A)p.[lna](G)p.r(U)p.r(A)p.r(C)p.r(U)p.r(C)p.r(A)p.r(G)p.r(C)p.r(G)p.r(U)p.r(A)p.r(A)p.r(G)p.[lna](T)p.[lna](T)}$$$RNA1{StrandType:ss}|RNA2{StrandType:as}$” showed a target mRNA knockdown of 85%. In turn, “RNA1{r(C)p.r(U)p.r(U)p.r(A)p.r(C)p.r(G)p.r(C)p.r(U)p.r(G)p.r(A)p.r(G)p.r(U)p.r(A)p.r(C)p.r(U)p.r(U)p.r(C)p.r(G)p.r(A)p.r(T)p.r(T)}|RNA2{r(T)p.r(C)p.r(G)p.r(A)p.r(A)p.r(G)p.[lna](T)p.r(A)p.r(C)p.r(U)p.r(C)p.r(A)p.r(G)p.r(C)p.r(G)p.r(U)p.r(A)p.r(A)p.r(G)p.[lna](T)p.[lna](T)}$$$RNA1{StrandType:ss}|RNA2{StrandType:as}$” gave a target mRNA knockdown of 93%. “RNA1{r(C)p.r(U)p.r(U)p.r(A)p.r(C)p.r(G)p.r(C)p.r(U)p.r(G)p.r(A)p.r(G)p.r(U)p.r(A)p.r(C)p.r(U)p.r(U)p.r(C)p.r(G)p.r(A)p.r(T)p.r(T)}|RNA2{r(T)p.r(C)p.r(G)p.r(A)p.r(A)p.r(G)p.r(U)p.[lna](A)p.r(C)p.r(U)p.r(C)p.r(A)p.r(G)p.r(C)p.r(G)p.r(U)p.r(A)p.r(A)p.r(G)p.[lna](T)p.[lna](T)}$$$RNA1{StrandType:ss}|RNA2{StrandType:as}$” had a target mRNA knockdown of 90%.

“RNA1{r(C)p.r(U)p.r(U)p.r(A)p.r(C)p.r(G)p.r(C)p.r(U)p.r(G)p.r(A)p.r(G)p.r(U)p.r(A)p.r(C)p.r(U)p.r(U)p.r(C)p.r(G)p.r(A)p.r(T)p.r(T)}|RNA2{r(T)p.r(C)p.r(G)p.r(A)p.r(A)p.r(G)p.r(U)p.r(A)p.r(C)p.[lna](T)p.r(C)p.r(A)p.r(G)p.r(C)p.r(G)p.r(U)p.r(A)p.r(A)p.r(G)p.[lna](T)p.[lna](T)}$$$RNA1{StrandType:ss}|RNA2{StrandType:as}$”: the target mRNA knockdown is 60%. For “RNA1{r(C)p.r(U)p.r(U)p.r(A)p.r(C)p.r(G)p.r(C)p.r(U)p.r(G)p.r(A)p.r(G)p.r(U)p.r(A)p.r(C)p.r(U)p.r(U)p.r(C)p.r(G)p.r(A)p.r(T)p.r(T)}|RNA2{r(T)p.r(C)p.r(G)p.r(A)p.r(A)p.r(G)p.r(U)p.r(A)p.r(C)p.r(U)p.r(C)p.[lna](A)p.r(G)p.r(C)p.r(G)p.r(U)p.r(A)p.r(A)p.r(G)p.[lna](T)p.[lna](T)}$$$RNA1{StrandType:ss}|RNA2{StrandType:as}$” the value was 70% and 94%. The value for “RNA1{r(C)p.r(U)p.r(U)p.r(A)p.r(C)p.r(G)p.r(C)p.r(U)p.r(G)p.r(A)p.r(G)p.r(U)p.r(A)p.r(C)p.r(U)p.r(U)p.r(C)p.r(G)p.r(A)p.r(T)p.r(T)}|RNA2{r(T)p.r(C)p.r(G)p.r(A)p.r(A)p.r(G)p.r(U)p.r(A)p.r(C)p.r(U)p.r(C)p.r(A)p.r(G)p.r(C)p.[lna](G)p.r(U)p.r(A)p.r(A)p.r(G)p.[lna](T)p.[lna](T)}$$$RNA1{StrandType:ss}|RNA2{StrandType:as}$” was 87%; that for “RNA1{r(C)p.r(U)p.r(U)p.r(A)p.r(C)p.r(G)p.r(C)p.r(U)p.r(G)p.r(A)p.r(G)p.r(U)p.r(A)p.r(C)p.r(U)p.r(U)p.r(C)p.r(G)p.r(A)p.r(T)p.r(T)}|RNA2{r(T)p.r(C)p.r(G)p.r(A)p.r(A)p.r(G)p.r(U)p.r(A)p.r(C)p.r(U)p.r(C)p.r(A)p.r(G)p.r(C)p.r(G)p.[lna](T)p.r(A)p.r(A)p.r(G)p.[lna](T)p.[lna](T)}$$$RNA1{StrandType:ss}|RNA2{StrandType:as}$” was 83%; that for “RNA1{r(C)p.r(U)p.r(U)p.r(A)p.r(C)p.r(G)p.r(C)p.r(U)p.r(G)p.r(A)p.r(G)p.r(U)p.r(A)p.r(C)p.r(U)p.r(U)p.r(C)p.r(G)p.r(A)p.r(T)p.r(T)}|RNA2{r(T)p.r(C)p.r(G)p.r(A)p.r(A)p.r(G)p.r(U)p.r(A)p.r(C)p.r(U)p.r(C)p.r(A)p.r(G)p.r(C)p.r(G)p.r(U)p.[lna](A)p.r(A)p.r(G)p.[lna](T)p.[lna](T)}$$$RNA1{StrandType:ss}|RNA2{StrandType:as}$” was 96%. Consider “RNA1{r(C)p.r(U)p.r(U)p.r(A)p.r(C)p.r(G)p.r(C)p.r(U)p.r(G)p.r(A)p.r(G)p.r(U)p.r(A)p.r(C)p.r(U)p.r(U)p.r(C)p.r(G)p.r(A)p.r(T)p.r(T)}|RNA2{r(T)p.r(C)p.r(G)p.r(A)p.r(A)p.r(G)p.r(U)p.r(A)p.r(C)p.r(U)p.r(C)p.r(A)p.r(G)p.r(C)p.r(G)p.r(U)p.r(A)p.[lna](A)p.r(G)p.[lna](T)p.[lna](T)}$$$RNA1{StrandType:ss}|RNA2{StrandType:as}$”, for which the target mRNA knockdown was 95%. “RNA1{r(C)p.r(U)p.r(U)p.r(A)p.r(C)p.r(G)p.r(C)p.r(U)p.r(G)p.r(A)p.r(G)p.r(U)p.r(A)p.r(C)p.r(U)p.r(U)p.r(C)p.r(G)p.r(A)p.r(T)p.r(T)}|RNA2{r(T)p.r(C)p.r(G)p.r(A)p.r(A)p.r(G)p.r(U)p.r(A)p.r(C)p.r(U)p.r(C)p.r(A)p.r(G)p.r(C)p.r(G)p.r(U)p.r(A)p.r(A)p.[lna](G)p.[lna](T)p.[lna](T)}$$$RNA1{StrandType:ss}|RNA2{StrandType:as}$” yielded a target mRNA knockdown of 92%.

Take “RNA1{r(C)p.r(U)p.r(U)p.r(A)p.r(C)p.r(G)p.r(C)p.r(U)p.r(G)p.r(A)p.r(G)p.r(U)p.r(A)p.r(C)p.r(U)p.r(U)p.r(C)p.r(G)p.r(A)p.r(T)p.r(T)}|RNA2{r(U)p.[lna](C)p.r(G)p.r(A)p.r(A)p.r(G)p.r(U)p.r(A)p.r(C)p.r(U)p.r(C)p.r(A)p.r(G)p.r(C)p.r(G)p.r(U)p.r(A)p.r(A)p.r(G)p.r(T)p.r(T)}$$$RNA1{StrandType:ss}|RNA2{StrandType:as}$”: the target mRNA knockdown stood at 0%. Substance “RNA1{r(C)p.r(U)p.r(U)p.r(A)p.r(C)p.r(G)p.r(C)p.r(U)p.r(G)p.r(A)p.r(G)p.r(U)p.r(A)p.r(C)p.r(U)p.r(U)p.r(C)p.r(G)p.r(A)p.r(T)p.r(T)}|RNA2{r(U)p.r(C)p.[lna](G)p.r(A)p.r(A)p.r(G)p.r(U)p.r(A)p.r(C)p.r(U)p.r(C)p.r(A)p.r(G)p.r(C)p.r(G)p.r(U)p.r(A)p.r(A)p.r(G)p.r(T)p.r(T)}$$$RNA1{StrandType:ss}|RNA2{StrandType:as}$” came in with a target mRNA knockdown of 82%. The value for “RNA1{r(C)p.r(U)p.r(U)p.r(A)p.r(C)p.r(G)p.r(C)p.r(U)p.r(G)p.r(A)p.r(G)p.r(U)p.r(A)p.r(C)p.r(U)p.r(U)p.r(C)p.r(G)p.r(A)p.r(T)p.r(T)}|RNA2{r(U)p.r(C)p.r(G)p.[lna](A)p.r(A)p.r(G)p.r(U)p.r(A)p.r(C)p.r(U)p.r(C)p.r(A)p.r(G)p.r(C)p.r(G)p.r(U)p.r(A)p.r(A)p.r(G)p.r(T)p.r(T)}$$$RNA1{StrandType:ss}|RNA2{StrandType:as}$” was 85%; that for “RNA1{r(C)p.r(U)p.r(U)p.r(A)p.r(C)p.r(G)p.r(C)p.r(U)p.r(G)p.r(A)p.r(G)p.r(U)p.r(A)p.r(C)p.r(U)p.r(U)p.r(C)p.r(G)p.r(A)p.r(T)p.r(T)}|RNA2{r(U)p.r(C)p.r(G)p.r(A)p.[lna](A)p.r(G)p.r(U)p.r(A)p.r(C)p.r(U)p.r(C)p.r(A)p.r(G)p.r(C)p.r(G)p.r(U)p.r(A)p.r(A)p.r(G)p.r(T)p.r(T)}$$$RNA1{StrandType:ss}|RNA2{StrandType:as}$” was 83%; that for “RNA1{r(C)p.r(U)p.r(U)p.r(A)p.r(C)p.r(G)p.r(C)p.r(U)p.r(G)p.r(A)p.r(G)p.r(U)p.r(A)p.r(C)p.r(U)p.r(U)p.r(C)p.r(G)p.r(A)p.r(T)p.r(T)}|RNA2{r(U)p.r(C)p.r(G)p.r(A)p.r(A)p.[lna](G)p.r(U)p.r(A)p.r(C)p.r(U)p.r(C)p.r(A)p.r(G)p.r(C)p.r(G)p.r(U)p.r(A)p.r(A)p.r(G)p.r(T)p.r(T)}$$$RNA1{StrandType:ss}|RNA2{StrandType:as}$” was 82%. For “RNA1{r(C)p.r(U)p.r(U)p.r(A)p.r(C)p.r(G)p.r(C)p.r(U)p.r(G)p.r(A)p.r(G)p.r(U)p.r(A)p.r(C)p.r(U)p.r(U)p.r(C)p.r(G)p.r(A)p.r(T)p.r(T)}|RNA2{r(U)p.r(C)p.r(G)p.r(A)p.r(A)p.r(G)p.[lna](U)p.r(A)p.r(C)p.r(U)p.r(C)p.r(A)p.r(G)p.r(C)p.r(G)p.r(U)p.r(A)p.r(A)p.r(G)p.r(T)p.r(T)}$$$RNA1{StrandType:ss}|RNA2{StrandType:as}$” the value was 81%.
